Consider two compounds from ChEMBL document CHEMBL1201862, “PubChem BioAssay data set” (2004).

The source made the active and inactive calls.

For one test, the target named is T1, Exodeoxyribonuclease V (Escherichia coli (strain K12), UniProt P04993+P07648+P08394).
T1 sequence (P04993 whole entry): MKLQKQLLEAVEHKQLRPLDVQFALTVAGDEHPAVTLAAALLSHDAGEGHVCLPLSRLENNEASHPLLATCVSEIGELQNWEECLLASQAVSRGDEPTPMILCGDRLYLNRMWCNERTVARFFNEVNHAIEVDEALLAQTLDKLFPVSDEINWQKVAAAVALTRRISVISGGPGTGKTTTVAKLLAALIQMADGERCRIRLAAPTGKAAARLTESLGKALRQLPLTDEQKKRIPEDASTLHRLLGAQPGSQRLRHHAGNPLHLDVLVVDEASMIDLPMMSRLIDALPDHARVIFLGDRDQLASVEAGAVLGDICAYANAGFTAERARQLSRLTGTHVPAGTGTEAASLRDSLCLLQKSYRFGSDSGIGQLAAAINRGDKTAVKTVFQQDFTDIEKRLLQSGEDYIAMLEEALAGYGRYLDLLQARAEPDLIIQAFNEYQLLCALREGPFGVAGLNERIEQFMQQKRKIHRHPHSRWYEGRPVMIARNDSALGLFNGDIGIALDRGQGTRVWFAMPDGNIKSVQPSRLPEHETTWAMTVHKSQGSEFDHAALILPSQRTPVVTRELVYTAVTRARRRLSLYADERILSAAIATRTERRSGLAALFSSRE
T1 sequence (P07648 whole entry): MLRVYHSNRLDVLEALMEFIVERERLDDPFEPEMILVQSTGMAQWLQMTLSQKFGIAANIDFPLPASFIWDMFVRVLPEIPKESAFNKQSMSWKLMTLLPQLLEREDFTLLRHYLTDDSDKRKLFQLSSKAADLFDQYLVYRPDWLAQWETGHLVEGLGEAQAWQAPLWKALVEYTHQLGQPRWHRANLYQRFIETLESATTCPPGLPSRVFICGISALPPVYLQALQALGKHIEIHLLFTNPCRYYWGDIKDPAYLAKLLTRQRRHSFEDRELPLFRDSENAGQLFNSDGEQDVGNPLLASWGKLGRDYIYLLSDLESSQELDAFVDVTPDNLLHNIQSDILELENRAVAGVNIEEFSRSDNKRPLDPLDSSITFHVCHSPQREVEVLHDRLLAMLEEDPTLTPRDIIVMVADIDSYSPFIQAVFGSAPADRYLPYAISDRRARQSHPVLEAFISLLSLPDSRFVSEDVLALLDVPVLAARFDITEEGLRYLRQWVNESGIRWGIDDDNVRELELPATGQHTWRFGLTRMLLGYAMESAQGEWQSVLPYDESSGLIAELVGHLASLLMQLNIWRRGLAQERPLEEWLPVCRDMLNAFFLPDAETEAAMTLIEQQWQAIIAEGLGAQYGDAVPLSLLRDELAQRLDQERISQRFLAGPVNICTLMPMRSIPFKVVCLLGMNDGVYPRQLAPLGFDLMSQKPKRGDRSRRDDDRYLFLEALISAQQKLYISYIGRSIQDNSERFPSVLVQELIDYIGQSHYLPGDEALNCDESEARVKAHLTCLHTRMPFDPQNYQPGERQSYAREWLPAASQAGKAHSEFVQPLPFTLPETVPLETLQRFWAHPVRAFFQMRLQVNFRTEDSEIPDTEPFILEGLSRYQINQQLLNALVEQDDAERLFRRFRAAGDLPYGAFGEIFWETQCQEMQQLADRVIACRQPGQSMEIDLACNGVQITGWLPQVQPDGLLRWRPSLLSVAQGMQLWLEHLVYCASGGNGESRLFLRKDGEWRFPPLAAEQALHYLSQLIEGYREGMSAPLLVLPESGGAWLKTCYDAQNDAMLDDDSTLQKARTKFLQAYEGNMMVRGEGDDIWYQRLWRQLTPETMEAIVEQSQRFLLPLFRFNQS
T1 sequence (P08394 whole entry): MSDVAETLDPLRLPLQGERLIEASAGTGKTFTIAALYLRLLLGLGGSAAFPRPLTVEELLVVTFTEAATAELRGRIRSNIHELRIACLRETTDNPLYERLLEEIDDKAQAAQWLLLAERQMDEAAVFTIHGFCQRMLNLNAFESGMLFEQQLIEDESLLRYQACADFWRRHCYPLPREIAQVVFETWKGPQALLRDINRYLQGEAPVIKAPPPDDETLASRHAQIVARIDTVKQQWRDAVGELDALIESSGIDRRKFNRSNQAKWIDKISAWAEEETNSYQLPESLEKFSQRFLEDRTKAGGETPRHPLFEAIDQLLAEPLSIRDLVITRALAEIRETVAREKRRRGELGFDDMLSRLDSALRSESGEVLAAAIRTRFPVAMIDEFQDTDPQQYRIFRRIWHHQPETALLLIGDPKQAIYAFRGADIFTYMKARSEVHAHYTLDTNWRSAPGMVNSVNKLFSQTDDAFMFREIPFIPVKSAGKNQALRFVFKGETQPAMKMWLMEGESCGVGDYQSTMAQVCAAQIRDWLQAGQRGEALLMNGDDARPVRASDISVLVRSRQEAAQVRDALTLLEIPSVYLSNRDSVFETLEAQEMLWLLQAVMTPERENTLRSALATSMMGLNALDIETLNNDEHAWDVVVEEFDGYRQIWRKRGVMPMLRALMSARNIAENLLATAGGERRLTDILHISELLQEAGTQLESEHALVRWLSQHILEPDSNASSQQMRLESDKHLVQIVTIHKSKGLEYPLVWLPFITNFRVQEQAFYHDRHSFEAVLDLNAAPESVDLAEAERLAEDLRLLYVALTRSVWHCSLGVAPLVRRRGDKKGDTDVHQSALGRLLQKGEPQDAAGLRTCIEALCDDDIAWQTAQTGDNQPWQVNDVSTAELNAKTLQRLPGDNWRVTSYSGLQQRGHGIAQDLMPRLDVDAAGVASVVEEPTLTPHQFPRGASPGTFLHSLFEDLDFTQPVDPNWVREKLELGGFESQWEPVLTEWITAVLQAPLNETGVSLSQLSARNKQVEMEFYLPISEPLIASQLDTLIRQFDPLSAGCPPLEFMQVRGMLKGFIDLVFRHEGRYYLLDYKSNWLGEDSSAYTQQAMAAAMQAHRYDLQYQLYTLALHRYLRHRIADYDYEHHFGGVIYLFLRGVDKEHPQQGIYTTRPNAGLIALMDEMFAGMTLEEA
The experiment in a line: E. coli RecBCD inhibitors, dose response, counter-screen for AddAB inhibitor project, absorbance, V66 E. coli, mutant T4 phage (AID 492957). The test is classed as functional, cell-based, Escherichia coli str. K-12 substr. MG1655.

Test [1] in a line: HepG2 cell cytotoxicity, dose response, cytotoxicity control, plate reader, cherry-pick, antagonist series (AID 743416). The test is classed as functional, cell-based.
Test [2] deals with G-protein coupled receptor 55 (Homo sapiens, UniProt Q9Y2T6). Kind of test: GPR55 antagonists blocking LPI-driven arrestin recruitment, primary screen, imaging, U2OS, beta-arrestin-GFP, LPI agonist (AID 2013).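 Note: antagonist potency measured as reduced agonist-driven arrestin aggregation.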 The test is classed as functional. For orientation: Recruitment of arrestin is a read-out of receptor activation apart from second messengers.
G-protein coupled receptor 55, sequence (Q9Y2T6 whole entry): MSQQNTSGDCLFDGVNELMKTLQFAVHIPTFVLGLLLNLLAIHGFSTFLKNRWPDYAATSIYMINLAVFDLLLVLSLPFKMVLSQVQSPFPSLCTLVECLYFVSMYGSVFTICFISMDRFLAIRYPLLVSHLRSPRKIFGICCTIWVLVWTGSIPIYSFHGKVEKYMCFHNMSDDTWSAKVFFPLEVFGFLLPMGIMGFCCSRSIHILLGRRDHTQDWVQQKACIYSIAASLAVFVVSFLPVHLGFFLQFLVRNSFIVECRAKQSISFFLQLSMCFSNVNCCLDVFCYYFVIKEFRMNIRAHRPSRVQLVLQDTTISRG

In general, IC50 refers to the concentration needed to halve the response being measured. The term AC50 denotes the concentration at which the activity in the assay is half-maximal.

For the compound `Cc1ccc(C)c(S(=O)(=O)N2CCN(Cc3ccc(O)c4ncccc34)CC2)c1`, at Exodeoxyribonuclease V, the IC50 is > 119 µM (inactive).

Consider `COc1cc(NC(=O)Cn2ncc(Cl)c(Cl)c2=O)c(C)cc1[N+](=O)[O-]`, for which the half-maximal activity concentration (AC50) in test [1] was 9.1 µM (active). The IC50 in test [2] was 3.52 µM (active).
